The source of these data is ChEMBL document CHEMBL1201862, “PubChem BioAssay data set” (2004).

The structures appear in SMILES notation.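 Assay format: 96-well plates, 48-hour exposure. GI50 marks 50% less growth.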 Active and inactive are the calls of the source. Rule as the data show it: active = GI50 up to about 1.1 µM and inactive = higher. Some results are limits rather than exact numbers.

Some test systems named below: ACHN; HL-60; HOP-62; K562; M14; NCI-H23; OVCAR-3; RXF 393; SF-295; SF-539; SK-MEL-28; SK-OV-3; SN12C; SNB-19; SW-620; TK-10; UACC-257; LOX IMVI; Malme-3M.
Common to all, as to assay: DTP human tumour cell line panel, 48 h

As to `O=C1/C(=C/c2ccc(Cl)cc2)Oc2ccccc21`, the GI50 in the test with ACHN was 20.4 µM (inactive); in the test on HL-60, > 100 µM (inactive); in the test with HOP-62 it was 22.3 µM (inactive); with K562 it was > 100 µM (inactive); in the test on M14, 43.8 µM (inactive); in the test on NCI-H23 it was 23.4 µM (inactive). The GI50 with OVCAR-3 is > 100 µM (inactive); in the test with RXF 393, 21.4 µM (inactive); in the test on SF-295, 56.5 µM (inactive); in the test on SF-539 it was 20.6 µM (inactive); in the test on SK-MEL-28, > 100 µM (inactive); in the test on SK-OV-3, > 100 µM (inactive). Further, the GI50 in the test with SN12C was 96.8 µM (inactive); in the test on SNB-19, 37 µM (inactive); in the test with SW-620 it was > 100 µM (inactive); in the test with TK-10, 22.7 µM (inactive); with UACC-257 it was 64.7 µM (inactive).

As to `O=C(O)Cc1cccc2c1OC(c1ccccc1)C(Cl)(C(=O)c1ccccc1)C2=O` (stereo unspecified), the GI50 is 14 µM (inactive) in the test with ACHN; 11.9 µM (inactive) in the test with HL-60; 20.3 µM (inactive) in the test on HOP-62; 5.52 µM (inactive) in the test with K562; 14.4 µM (inactive) with LOX IMVI; 18.2 µM (inactive) in the test on Malme-3M. The GI50 was 16.1 µM (inactive) in the test with NCI-H23; 17.7 µM (inactive) in the test with OVCAR-3; > 10 µM (inactive) in the test on RXF 393; 23 µM (inactive) in the test with SF-295; 31.6 µM (inactive) with SF-539; 15.6 µM (inactive) in the test on SK-MEL-28. Also, the GI50 with SK-OV-3 was > 100 µM (inactive); in the test with SN12C, 10.5 µM (inactive); in the test on SNB-19, 40.1 µM (inactive); in the test on SW-620 it was 9.33 µM (inactive); in the test on TK-10, 21.8 µM (inactive); in the test with UACC-257, 15.3 µM (inactive).

For `CC1CN(c2cc3c(cc2F)c(=O)c(C(=O)O)cn3-c2ccc(F)cn2)CC(C)N1` (stereo unspecified), the GI50 with HL-60, with HOP-62, with K562, with LOX IMVI, in the test on M14 and in the test on Malme-3M was > 100 µM (inactive) in each case. The GI50 in the test with NCI-H23, with OVCAR-3, in the test with RXF 393, in the test with SF-295, in the test with SF-539 and in the test with SK-MEL-28 was > 100 µM (inactive) in each case. Besides, the GI50 in the test with SK-OV-3, with SN12C, in the test with SNB-19, in the test with SW-620, with TK-10 and with UACC-257 was > 100 µM (inactive) throughout.

As for `C=C1C(=O)O[C@H]2C[C@@]3(COC(C)=O)C=COC=C(COC(=O)C(C)C)C3CC12` (stereo partly specified), the GI50 with ACHN is > 100 µM (inactive); with HL-60, 23.8 µM (inactive); with HOP-62, > 100 µM (inactive); in the test with K562, 31.6 µM (inactive); in the test with LOX IMVI, 45.2 µM (inactive); in the test with Malme-3M it was > 100 µM (inactive). The GI50 in the test on NCI-H23 is > 100 µM (inactive); with OVCAR-3, > 100 µM (inactive); in the test with RXF 393, 67.6 µM (inactive); in the test on SF-295, > 100 µM (inactive); in the test on SF-539, > 100 µM (inactive); with SK-MEL-28 it was > 100 µM (inactive). In addition, the GI50 in the test with SN12C was 37.7 µM (inactive); in the test on SNB-19 it was > 100 µM (inactive); in the test on SW-620, 46.1 µM (inactive); in the test with TK-10, > 100 µM (inactive); in the test on UACC-257 it was > 100 µM (inactive).

Consider `CP(=O)(CCSc1ccccc1)c1ccccc1` (stereo unspecified), for which the GI50 in the test with ACHN is > 100 µM (inactive); with HL-60, 35.6 µM (inactive); in the test with HOP-62 it was > 100 µM (inactive); in the test on K562, > 100 µM (inactive); in the test on LOX IMVI, > 100 µM (inactive); with M14, > 100 µM (inactive). Moreover, the GI50 in the test on Malme-3M, with NCI-H23, with OVCAR-3, in the test on RXF 393, with SF-295 and with SF-539 was > 100 µM (inactive) each time. Also, the GI50 with SK-MEL-28, with SK-OV-3, in the test with SN12C, with SNB-19, in the test on SW-620 and with TK-10 was > 100 µM (inactive) in each case. The GI50 with UACC-257 was > 100 µM (inactive).

On to `COC1=CC(=O)c2c(O)ccc(O)c2C1=O`, for which the GI50 in the test with ACHN was 16.5 µM (inactive); with HL-60 it was 3.77 µM (inactive); in the test on HOP-62, 2.19 µM (inactive); in the test with K562, 6.68 µM (inactive); in the test on M14, 0.689 µM (active); in the test with Malme-3M, 0.0607 µM (active). Also, the GI50 was 2.64 µM (inactive) with NCI-H23; 2.18 µM (inactive) with OVCAR-3; 16.6 µM (inactive) with RXF 393; 2 µM (inactive) in the test with SF-295; 5.19 µM (inactive) with SF-539; 1.92 µM (inactive) with SK-MEL-28. Further, the GI50 in the test with SK-OV-3 is 18.6 µM (inactive); with SN12C it was 2.65 µM (inactive); in the test with SNB-19, 4.75 µM (inactive); in the test with SW-620, 3.85 µM (inactive); with TK-10, 14.7 µM (inactive); with UACC-257, 1.52 µM (inactive).

In the case of `CC(=O)OC(OC(C)=O)c1ccc2ccc3cccc4ccc1c2c34`, the GI50 with ACHN is 26.2 µM (inactive); in the test with HL-60, 9.38 µM (inactive); in the test with K562, 38.7 µM (inactive); in the test on LOX IMVI, 16 µM (inactive); with M14 it was 24.8 µM (inactive); in the test on Malme-3M, 12.3 µM (inactive). The GI50 was 18.7 µM (inactive) in the test on NCI-H23; 26.7 µM (inactive) in the test on OVCAR-3; 11.3 µM (inactive) in the test on RXF 393; 18.7 µM (inactive) with SF-295; 38.7 µM (inactive) in the test with SF-539; 23 µM (inactive) in the test with SK-OV-3. Also, the GI50 in the test with SN12C is 26.7 µM (inactive); in the test with SNB-19, 19.5 µM (inactive); in the test with TK-10 it was 9.25 µM (inactive); in the test with UACC-257, 17.1 µM (inactive).

Take `O=C1COCCN1C(=O)c1ccccc1Cl`: the GI50 in the test on ACHN, with HL-60, with HOP-62, in the test on K562, in the test with LOX IMVI and in the test on M14 was > 100 µM (inactive) each time. Further, the GI50 with Malme-3M, with NCI-H23, in the test on OVCAR-3, in the test on RXF 393, in the test with SF-295 and in the test on SF-539 was > 100 µM (inactive) in each case. The GI50 in the test with SK-MEL-28, with SN12C, with SNB-19, in the test with SW-620, in the test on TK-10 and in the test on UACC-257 was > 100 µM (inactive) each time.
